Measurements taken from ChEMBL document CHEMBL1201862, “PubChem BioAssay data set” (2004).
Activity calls are given as the source filed them.

Columns and labels:
Protein RecA = target: T1, Protein RecA (Mycobacterium tuberculosis, UniProt P9WHJ3); assay: Fluorescence Cell-Free Homogeneous Dose Retest to Identify Inhibitors of RecA-Intein Splicing Activity. [Related pubchem assays (depositor defined):AID2097, AID2223, AID489010, AID492950]; format: functional
T1 sequence (P9WHJ3 whole entry): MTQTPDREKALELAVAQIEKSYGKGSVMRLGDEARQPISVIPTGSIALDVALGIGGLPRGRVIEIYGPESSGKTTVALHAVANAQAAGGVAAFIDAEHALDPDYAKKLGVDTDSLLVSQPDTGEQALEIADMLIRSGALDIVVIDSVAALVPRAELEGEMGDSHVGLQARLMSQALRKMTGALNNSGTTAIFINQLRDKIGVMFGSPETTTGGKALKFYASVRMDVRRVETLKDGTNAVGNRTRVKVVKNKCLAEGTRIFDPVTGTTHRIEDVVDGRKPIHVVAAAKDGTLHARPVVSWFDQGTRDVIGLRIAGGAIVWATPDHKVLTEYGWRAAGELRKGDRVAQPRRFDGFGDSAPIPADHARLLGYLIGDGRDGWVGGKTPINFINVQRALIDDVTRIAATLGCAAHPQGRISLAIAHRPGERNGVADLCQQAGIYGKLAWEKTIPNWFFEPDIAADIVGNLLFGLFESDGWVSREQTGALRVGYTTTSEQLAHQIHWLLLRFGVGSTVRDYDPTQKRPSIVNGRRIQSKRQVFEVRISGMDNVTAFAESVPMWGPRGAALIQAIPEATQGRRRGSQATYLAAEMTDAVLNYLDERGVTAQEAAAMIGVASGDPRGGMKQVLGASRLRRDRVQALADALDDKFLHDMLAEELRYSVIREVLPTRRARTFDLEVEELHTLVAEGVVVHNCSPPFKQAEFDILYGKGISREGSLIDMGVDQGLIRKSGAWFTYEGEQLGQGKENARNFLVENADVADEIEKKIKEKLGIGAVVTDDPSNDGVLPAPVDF

SRSF protein kinase 1 = SRSF protein kinase 1 (Homo sapiens, UniProt Q96SB4); format: functional;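 also: measured as one member of a kinome-wide kinase profiling panel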
SRSF protein kinase 1, sequence (Q96SB4 whole entry): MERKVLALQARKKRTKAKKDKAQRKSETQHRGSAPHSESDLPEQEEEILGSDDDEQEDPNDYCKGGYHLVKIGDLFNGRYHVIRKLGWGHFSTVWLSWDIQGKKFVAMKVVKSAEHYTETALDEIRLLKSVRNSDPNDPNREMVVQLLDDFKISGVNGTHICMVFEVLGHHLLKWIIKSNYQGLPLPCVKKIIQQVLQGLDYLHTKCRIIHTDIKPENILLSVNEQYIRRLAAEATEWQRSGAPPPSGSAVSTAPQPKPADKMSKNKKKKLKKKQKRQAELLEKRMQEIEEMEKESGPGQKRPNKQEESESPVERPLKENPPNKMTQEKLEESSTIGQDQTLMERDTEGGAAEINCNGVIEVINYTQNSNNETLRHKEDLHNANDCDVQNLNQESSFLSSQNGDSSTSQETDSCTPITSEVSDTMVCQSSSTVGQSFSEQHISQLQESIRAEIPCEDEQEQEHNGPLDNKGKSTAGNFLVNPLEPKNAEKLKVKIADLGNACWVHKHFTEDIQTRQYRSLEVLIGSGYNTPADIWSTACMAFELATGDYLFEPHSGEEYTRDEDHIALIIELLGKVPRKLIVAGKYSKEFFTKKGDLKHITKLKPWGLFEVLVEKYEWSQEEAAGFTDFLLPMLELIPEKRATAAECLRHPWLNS

[1] = target: Serine/threonine-protein kinase PLK1 (Homo sapiens, UniProt P53350); format: functional;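 also: PLK1 measured as one member of a kinome-wide profiling panel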
Serine/threonine-protein kinase PLK1, sequence (P53350 whole entry): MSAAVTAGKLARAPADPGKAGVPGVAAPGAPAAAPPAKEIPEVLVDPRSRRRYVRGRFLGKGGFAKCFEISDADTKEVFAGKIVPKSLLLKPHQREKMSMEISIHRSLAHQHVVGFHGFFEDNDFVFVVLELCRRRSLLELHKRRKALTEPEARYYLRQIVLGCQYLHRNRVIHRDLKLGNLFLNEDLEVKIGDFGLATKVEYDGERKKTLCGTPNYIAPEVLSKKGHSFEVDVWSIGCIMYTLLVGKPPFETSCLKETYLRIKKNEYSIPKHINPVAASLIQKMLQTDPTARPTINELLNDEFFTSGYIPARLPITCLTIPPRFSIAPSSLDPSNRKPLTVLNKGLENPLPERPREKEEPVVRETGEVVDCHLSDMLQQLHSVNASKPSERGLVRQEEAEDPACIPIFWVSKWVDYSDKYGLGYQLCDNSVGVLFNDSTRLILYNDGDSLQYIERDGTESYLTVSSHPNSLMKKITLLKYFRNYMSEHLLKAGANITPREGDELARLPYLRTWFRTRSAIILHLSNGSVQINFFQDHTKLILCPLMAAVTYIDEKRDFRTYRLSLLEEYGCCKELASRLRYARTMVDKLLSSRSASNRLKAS

Insulin receptor = Insulin receptor (Homo sapiens, UniProt P06213); format: functional;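 also: insulin receptor kinase tested as one member of a kinome-wide kinase panel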
Insulin receptor, sequence (P06213 28-758 limits assumed): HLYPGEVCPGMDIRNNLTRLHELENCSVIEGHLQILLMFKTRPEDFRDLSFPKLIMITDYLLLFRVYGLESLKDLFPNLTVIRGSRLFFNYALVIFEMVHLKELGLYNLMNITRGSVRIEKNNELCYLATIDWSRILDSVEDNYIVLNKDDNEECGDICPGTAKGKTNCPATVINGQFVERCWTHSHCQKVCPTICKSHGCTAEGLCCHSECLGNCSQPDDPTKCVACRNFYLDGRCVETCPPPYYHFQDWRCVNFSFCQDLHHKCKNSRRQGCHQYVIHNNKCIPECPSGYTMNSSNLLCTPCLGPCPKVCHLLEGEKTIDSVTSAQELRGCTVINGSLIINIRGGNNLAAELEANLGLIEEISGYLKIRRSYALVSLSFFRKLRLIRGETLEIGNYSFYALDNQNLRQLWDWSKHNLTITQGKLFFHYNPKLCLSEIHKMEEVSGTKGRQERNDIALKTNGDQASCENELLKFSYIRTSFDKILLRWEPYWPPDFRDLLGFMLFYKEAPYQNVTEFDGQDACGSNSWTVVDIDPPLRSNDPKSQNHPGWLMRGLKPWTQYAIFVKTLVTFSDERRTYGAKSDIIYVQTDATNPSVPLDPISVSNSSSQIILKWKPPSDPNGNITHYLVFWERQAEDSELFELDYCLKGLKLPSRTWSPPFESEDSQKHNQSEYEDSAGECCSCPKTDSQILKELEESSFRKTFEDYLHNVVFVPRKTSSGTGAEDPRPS
Insulin receptor, sequence (P06213 763-1382 limits assumed): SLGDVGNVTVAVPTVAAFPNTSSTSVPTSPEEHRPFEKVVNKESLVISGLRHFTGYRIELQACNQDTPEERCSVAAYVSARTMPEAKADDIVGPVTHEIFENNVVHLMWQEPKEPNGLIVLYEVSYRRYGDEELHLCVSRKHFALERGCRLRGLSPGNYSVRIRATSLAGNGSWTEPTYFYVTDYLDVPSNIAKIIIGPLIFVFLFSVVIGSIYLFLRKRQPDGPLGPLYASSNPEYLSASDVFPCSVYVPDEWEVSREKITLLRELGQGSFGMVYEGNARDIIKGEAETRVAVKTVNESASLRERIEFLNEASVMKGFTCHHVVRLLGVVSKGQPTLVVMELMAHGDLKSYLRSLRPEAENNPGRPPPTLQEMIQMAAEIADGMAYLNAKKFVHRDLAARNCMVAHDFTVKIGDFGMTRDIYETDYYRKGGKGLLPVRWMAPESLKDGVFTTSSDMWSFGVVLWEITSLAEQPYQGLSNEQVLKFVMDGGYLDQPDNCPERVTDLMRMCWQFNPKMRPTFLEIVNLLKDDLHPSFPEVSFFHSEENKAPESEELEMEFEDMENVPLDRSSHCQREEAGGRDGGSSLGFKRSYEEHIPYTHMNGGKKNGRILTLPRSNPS

[2] = target: Serine/threonine-protein kinase PLK4 (Homo sapiens, UniProt O00444); format: functional;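 also: PLK4 measured as one member of a kinome-wide kinase profiling panel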
Serine/threonine-protein kinase PLK4, sequence (O00444 whole entry): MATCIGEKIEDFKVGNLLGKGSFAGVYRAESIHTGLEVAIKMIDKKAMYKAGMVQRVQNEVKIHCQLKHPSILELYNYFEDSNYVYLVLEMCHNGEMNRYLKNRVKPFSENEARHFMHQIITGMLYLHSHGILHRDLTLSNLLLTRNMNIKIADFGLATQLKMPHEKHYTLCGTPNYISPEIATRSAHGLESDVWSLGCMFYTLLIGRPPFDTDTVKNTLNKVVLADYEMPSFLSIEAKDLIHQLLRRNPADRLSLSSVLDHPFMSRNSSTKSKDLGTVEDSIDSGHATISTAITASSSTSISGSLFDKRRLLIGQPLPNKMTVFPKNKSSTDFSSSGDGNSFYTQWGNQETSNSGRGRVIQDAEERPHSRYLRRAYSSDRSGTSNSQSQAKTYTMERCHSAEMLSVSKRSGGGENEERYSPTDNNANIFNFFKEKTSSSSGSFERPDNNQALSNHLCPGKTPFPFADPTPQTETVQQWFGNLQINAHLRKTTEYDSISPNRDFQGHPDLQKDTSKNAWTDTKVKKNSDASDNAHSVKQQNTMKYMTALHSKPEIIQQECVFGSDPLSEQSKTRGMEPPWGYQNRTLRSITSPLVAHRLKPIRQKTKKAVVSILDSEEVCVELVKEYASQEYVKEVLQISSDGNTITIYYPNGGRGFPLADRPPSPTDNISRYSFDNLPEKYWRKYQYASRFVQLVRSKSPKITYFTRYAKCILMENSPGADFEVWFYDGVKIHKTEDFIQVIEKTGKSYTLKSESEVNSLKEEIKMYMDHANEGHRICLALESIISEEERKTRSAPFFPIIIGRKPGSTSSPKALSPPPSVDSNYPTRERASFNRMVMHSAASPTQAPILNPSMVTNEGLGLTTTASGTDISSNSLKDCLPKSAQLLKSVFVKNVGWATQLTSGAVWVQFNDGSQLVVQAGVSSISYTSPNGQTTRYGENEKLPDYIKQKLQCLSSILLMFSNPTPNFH

[3] = target: Protein-tyrosine kinase 6 (Homo sapiens, UniProt Q13882); format: functional
Protein-tyrosine kinase 6, sequence (Q13882 whole entry): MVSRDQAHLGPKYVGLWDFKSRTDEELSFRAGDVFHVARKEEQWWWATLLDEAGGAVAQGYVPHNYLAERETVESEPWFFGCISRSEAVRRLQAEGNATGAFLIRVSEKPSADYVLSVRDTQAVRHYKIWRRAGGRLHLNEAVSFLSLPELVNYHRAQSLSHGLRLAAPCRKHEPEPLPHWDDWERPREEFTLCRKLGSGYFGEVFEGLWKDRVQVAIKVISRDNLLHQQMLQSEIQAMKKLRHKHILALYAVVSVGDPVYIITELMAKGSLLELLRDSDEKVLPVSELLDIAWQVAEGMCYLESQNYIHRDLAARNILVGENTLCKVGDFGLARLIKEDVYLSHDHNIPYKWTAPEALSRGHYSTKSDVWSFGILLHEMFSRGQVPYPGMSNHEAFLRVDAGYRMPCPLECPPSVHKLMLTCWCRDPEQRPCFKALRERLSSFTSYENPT

[4] = target: Tyrosine-protein kinase ITK/TSK (Homo sapiens, UniProt Q08881); format: functional;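 also: affinity for ITK measured as one member of a broad kinase panel profiling binding across the kinome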
Tyrosine-protein kinase ITK/TSK, sequence (Q08881 whole entry): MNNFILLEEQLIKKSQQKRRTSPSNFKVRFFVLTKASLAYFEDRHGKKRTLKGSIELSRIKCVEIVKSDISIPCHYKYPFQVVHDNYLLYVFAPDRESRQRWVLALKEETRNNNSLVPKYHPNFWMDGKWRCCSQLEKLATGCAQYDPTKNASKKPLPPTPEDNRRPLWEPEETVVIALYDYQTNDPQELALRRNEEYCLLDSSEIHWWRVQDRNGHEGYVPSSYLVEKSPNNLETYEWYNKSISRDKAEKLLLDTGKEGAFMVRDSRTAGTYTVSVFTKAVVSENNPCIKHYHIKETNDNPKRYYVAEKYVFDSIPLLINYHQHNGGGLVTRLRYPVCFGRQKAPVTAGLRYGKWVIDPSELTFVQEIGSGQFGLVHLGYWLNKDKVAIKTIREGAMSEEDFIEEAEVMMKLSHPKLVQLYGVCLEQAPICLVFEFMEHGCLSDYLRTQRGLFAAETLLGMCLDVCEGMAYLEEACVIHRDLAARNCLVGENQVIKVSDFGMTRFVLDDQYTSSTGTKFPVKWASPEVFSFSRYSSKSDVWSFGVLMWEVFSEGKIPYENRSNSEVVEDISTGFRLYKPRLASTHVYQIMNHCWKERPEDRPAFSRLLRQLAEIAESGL

[5] = target: Serine/threonine-protein kinase pim-2 (Homo sapiens, UniProt Q9P1W9); format: functional;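 also: value comes from a broad kinase panel profiling study in which PIM2 was one of the panel members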
Serine/threonine-protein kinase pim-2, sequence (Q9P1W9 whole entry): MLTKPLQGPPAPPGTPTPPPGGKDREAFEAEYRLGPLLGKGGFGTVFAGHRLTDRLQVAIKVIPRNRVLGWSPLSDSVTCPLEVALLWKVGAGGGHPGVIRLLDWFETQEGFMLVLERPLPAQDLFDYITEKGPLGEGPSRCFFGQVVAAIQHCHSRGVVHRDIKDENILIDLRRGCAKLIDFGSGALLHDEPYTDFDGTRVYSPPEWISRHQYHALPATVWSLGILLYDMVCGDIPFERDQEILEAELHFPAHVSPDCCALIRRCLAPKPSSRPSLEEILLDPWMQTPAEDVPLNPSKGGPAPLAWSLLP

Streptokinase A = target: T2, Streptokinase A (Streptococcus pyogenes serotype M1, UniProt P10520); assay: S. pyogenes streptokinase expression inhibitors, potency, dose response, plasminogen activation absorbance, OD405 (AID 1914); format: functional, Streptococcus pyogenes M1 GAS;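 also: secreted streptokinase activity via plasminogen activation per viability signal from cell pellet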
T2 sequence (P10520 whole entry): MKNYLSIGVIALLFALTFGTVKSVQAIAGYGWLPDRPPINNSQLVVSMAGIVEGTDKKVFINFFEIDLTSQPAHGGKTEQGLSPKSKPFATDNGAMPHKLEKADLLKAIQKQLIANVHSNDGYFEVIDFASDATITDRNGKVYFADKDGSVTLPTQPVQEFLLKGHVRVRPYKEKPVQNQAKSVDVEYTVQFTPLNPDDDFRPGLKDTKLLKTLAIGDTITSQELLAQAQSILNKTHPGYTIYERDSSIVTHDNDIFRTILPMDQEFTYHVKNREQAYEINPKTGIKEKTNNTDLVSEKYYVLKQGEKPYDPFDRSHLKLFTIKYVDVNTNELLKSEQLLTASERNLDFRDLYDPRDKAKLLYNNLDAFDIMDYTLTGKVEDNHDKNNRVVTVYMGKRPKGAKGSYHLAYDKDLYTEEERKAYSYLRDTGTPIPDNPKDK

In the case of `OCC[n+]1c2ccccc2nc2ccc(N3CCOCC3)cc21`, the EC50 (Protein RecA) is reported as > 120000 nM (inconclusive).

In the case of `CS(=O)(=O)N(Cc1ccc2[nH]c(=O)c3cccn3c2c1)C1CC1`, the Ki (SRSF protein kinase 1) is reported as 200 nM (active), the Ki [1] is reported as 10 nM (active) and the Ki (Insulin receptor) is reported as > 5010 nM (inactive). The Ki [2] was 251 nM (active), the Ki [3] was 2000 nM (active) and the Ki [4] was > 1580 nM (inactive). For the same compound, the Ki [5] was > 1580 nM (inactive).

`Cc1cc(NC(c2ccc(Cl)cc2)c2ccc3cccnc3c2O)no1` (centres undefined) was tested, and the EC50 (Streptokinase A) was > 150000 nM (not active).
